Data as given in US7846959B2, “Raf modulators and methods of use” (Exelixis, Inc., priority 2004, dated 2010).

Key:
[1] = target: B-Raf (Homo sapiens, UniProt P15056); assay: Luciferase-coupled chemiluminescence kinase assay (ATP consumption), B-Raf; assay type: biochemical; conditions: read-out: bRaf IC50
Summary of the method: (§1)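 Raf enzyme ([…]) pre-incubated with compound 30 minutes at room temperature in 20 mM Tris pH 7.5, 10 mM MgCl2, 0.03% TX-100, 1 mM DTT, then reacted with ATP for 3 hrs at ambient temperature. Remaining ATP quantified by luciferase-luciferin chemiluminescence, consumption held at 25-60%; IC50 reported.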

[2] = target: c-Raf (Homo sapiens, UniProt P04049); assay: Luciferase-coupled chemiluminescence kinase assay (ATP consumption), c-Raf; assay type: biochemical; conditions: read-out: cRaf-1 IC50
Summary of the method: as §1

Sequence of B-Raf (P15056 whole entry): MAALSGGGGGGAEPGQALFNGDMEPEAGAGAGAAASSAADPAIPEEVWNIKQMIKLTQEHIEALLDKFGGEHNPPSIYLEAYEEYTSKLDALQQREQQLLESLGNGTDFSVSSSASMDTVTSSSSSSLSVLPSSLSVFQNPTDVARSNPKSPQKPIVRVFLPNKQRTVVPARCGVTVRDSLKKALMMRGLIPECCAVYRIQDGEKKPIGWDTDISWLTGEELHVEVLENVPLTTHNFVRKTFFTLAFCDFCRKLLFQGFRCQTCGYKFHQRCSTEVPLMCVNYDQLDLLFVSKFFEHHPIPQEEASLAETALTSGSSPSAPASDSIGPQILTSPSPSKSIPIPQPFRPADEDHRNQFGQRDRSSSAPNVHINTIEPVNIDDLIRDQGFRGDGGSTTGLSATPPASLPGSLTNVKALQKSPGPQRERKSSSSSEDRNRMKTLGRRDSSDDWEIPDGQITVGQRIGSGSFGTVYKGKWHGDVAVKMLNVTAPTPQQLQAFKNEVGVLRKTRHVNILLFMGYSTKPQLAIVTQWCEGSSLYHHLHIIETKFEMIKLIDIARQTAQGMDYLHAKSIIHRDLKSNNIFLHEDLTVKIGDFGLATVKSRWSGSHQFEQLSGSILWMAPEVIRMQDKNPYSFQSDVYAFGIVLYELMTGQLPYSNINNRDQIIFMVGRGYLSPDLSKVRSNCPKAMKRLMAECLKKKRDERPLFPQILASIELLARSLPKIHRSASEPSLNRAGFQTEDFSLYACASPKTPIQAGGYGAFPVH
Sequence of c-Raf (P04049 whole entry): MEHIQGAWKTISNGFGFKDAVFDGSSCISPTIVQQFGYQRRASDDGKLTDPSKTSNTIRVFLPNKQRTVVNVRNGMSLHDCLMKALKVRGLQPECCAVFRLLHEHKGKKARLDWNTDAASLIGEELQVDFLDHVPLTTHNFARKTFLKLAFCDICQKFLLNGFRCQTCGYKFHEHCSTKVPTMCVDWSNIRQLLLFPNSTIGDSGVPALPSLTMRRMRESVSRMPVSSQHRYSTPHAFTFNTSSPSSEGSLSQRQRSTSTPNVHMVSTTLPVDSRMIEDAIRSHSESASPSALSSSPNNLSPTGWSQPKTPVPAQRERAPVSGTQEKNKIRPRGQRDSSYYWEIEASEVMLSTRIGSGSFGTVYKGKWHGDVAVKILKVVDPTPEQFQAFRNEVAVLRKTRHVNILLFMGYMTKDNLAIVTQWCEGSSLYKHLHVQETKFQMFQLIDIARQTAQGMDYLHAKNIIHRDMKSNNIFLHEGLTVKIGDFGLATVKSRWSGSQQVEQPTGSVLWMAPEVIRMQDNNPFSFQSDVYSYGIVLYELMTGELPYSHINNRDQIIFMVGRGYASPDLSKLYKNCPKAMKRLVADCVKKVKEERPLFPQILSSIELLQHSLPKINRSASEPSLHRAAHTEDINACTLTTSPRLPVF

| IC50 [1] [nM] | IC50 [2] [nM] | SMILES |
| --- | --- | --- |
| < 100 | < 100 | CNC(=O)Nc1nc2cc(C3(O)c4ccccc4C(=O)N3Cc3ccccc3)ccc2[nH]1 (stereo not shown) [Entry 171, N-{5-[1-hydroxy-3-oxo-2-(phenylmethyl)-2,3-dihydro-1H-isoindol-1-yl]-1H-benzimidazol-2-yl}-N′-methylurea] |
| 1000 to 10000 | 1000 to 10000 | COC(=O)Nc1nc2cc(C3(O)c4ccccc4C(=O)N3C(C)c3ccccc3F)ccc2[nH]1 (stereo not shown) [Entry 172, methyl (5-{2-[1-(2-fluorophenyl)ethyl]-1-hydroxy-3-oxo-2,3-dihydro-1H-isoindol-1-yl}-1H-benzimidazol-2-yl)carbamate] |
| < 100 | < 100 | COC(=O)Nc1nc2cc(C3(O)c4ccccc4C(=O)N3C(C)c3cccs3)ccc2[nH]1 (stereo not shown) [Entry 173, methyl (5-{1-hydroxy-3-oxo-2-[1-(2-thienyl)ethyl]-2,3-dihydro-1H-isoindol-1-yl}-1H-benzimidazol-2-yl)carbamate] |
| < 100 | 100 to 1000 | COC(=O)Nc1nc2cc(C3(O)c4ccccc4C(=O)N3C(C)c3cccc(Cl)c3)ccc2[nH]1 (stereo not shown) [Entry 174, methyl (5-{2-[1-(3-chlorophenyl)ethyl]-1-hydroxy-3-oxo-2,3-dihydro-1H-isoindol-1-yl}-1H-benzimidazol-2-yl)carbamate] |
| < 100 | < 100 | COC(=O)Nc1nc2cc(C3(O)c4ccccc4C(=O)N3c3cc(C)cc(C(F)(F)F)c3)ccc2[nH]1 (stereo not shown) [Entry 175, methyl (5-{1-hydroxy-2-[3-methyl-5-(trifluoromethyl)phenyl]-3-oxo-2,3-dihydro-1H-isoindol-1-yl}-1H-benzimidazol-2-yl)carbamate] |
| < 100 | < 100 | CCC(=O)Nc1nc2cc(C3(O)c4ccccc4C(=O)N3Cc3ccccc3)ccc2[nH]1 (stereo not shown) [Entry 176, N-{5-[1-hydroxy-3-oxo-2-(phenylmethyl)-2,3-dihydro-1H-isoindol-1-yl]-1H-benzimidazol-2-yl}propanamide] |
| < 100 | < 100 | COC(=O)Nc1nc2cc(C3(O)c4ccccc4C(=O)N3c3ccc(Cl)c(Cl)c3)ccc2[nH]1 (stereo not shown) [Entry 177, methyl {5-[2-(3,4-dichlorophenyl)-1-hydroxy-3-oxo-2,3-dihydro-1H-isoindol-1-yl]-1H-benzimidazol-2-yl}carbamate] |
| < 100 | < 100 | CCc1cccc(N2C(=O)c3ccccc3C2(O)c2ccc3[nH]c(NC(=O)OC)nc3c2)c1 (stereo not shown) [Entry 178, methyl {5-[2-(3-ethylphenyl)-1-hydroxy-3-oxo-2,3-dihydro-1H-isoindol-1-yl]-1H-benzimidazol-2-yl}carbamate] |
| < 100 | < 100 | C#Cc1cccc(N2C(=O)c3ccccc3C2(O)c2ccc3[nH]c(NC(=O)OC)nc3c2)c1 (stereo not shown) [Entry 179, methyl {5-[2-(3-ethynylphenyl)-1-hydroxy-3-oxo-2,3-dihydro-1H-isoindol-1-yl]-1H-benzimidazol-2-yl}carbamate] |
| < 100 | < 100 | COC(=O)Nc1nc2cc(C3(O)c4ccccc4C(=O)N3c3ccc(Cl)c(C)c3)ccc2[nH]1 (stereo not shown) [Entry 180, methyl {5-[2-(4-chloro-3-methylphenyl)-1-hydroxy-3-oxo-2,3-dihydro-1H-isoindol-1-yl]-1H-benzimidazol-2-yl}carbamate] |
| 1000 to 10000 | 1000 to 10000 | COC(=O)Nc1nc2cc(C3(O)c4ccccc4C(=O)N3C(C)c3cccc(C(F)(F)F)c3)ccc2[nH]1 (stereo not shown) [Entry 181, methyl [5-(1-hydroxy-3-oxo-2-{1-[3-(trifluoromethyl)phenyl]ethyl}-2,3-dihydro-1H-isoindol-1-yl)-1H-benzimidazol-2-yl]carbamate] |
| 100 to 1000 | 100 to 1000 | CC[C@H](c1ccccc1)N1C(=O)c2ccccc2C1(O)c1ccc2[nH]c(NC(=O)OC)nc2c1 (stereo partly drawn) [Entry 182, methyl (5-{1-hydroxy-3-oxo-2-[(1R)-1-phenylpropyl]-2,3-dihydro-1H-isoindol-1-yl}-1H-benzimidazol-2-yl)carbamate] |
| < 100 | 100 to 1000 | COC(=O)Nc1nc2cc(C3(O)c4ccccc4C(=O)N3c3ccccc3OC(F)(F)F)ccc2[nH]1 (stereo not shown) [Entry 183, methyl [5-(1-hydroxy-3-oxo-2-{2-[(trifluoromethyl)oxy]phenyl}-2,3-dihydro-1H-isoindol-1-yl)-1H-benzimidazol-2-yl]carbamate] |
| < 100 | < 100 | COC(=O)Nc1nc2cc(C3(O)c4ccccc4C(=O)N3c3cccc(F)c3F)ccc2[nH]1 (stereo not shown) [Entry 184, methyl {5-[2-(2,3-difluorophenyl)-1-hydroxy-3-oxo-2,3-dihydro-1H-isoindol-1-yl]-1H-benzimidazol-2-yl}carbamate] |
| 100 to 1000 | 100 to 1000 | O=C(Nc1nc2cc(C3(O)c4ccccc4C(=O)N3Cc3ccccc3)ccc2[nH]1)OC1CCCCC1 (stereo not shown) [Entry 185, cyclohexyl {5-[1-hydroxy-3-oxo-2-(phenylmethyl)-2,3-dihydro-1H-isoindol-1-yl]-1H-benzimidazol-2-yl}carbamate] |
| < 100 | < 100 | O=C(Nc1nc2cc(C3(O)c4ccccc4C(=O)N3Cc3ccccc3)ccc2[nH]1)OCC1CCCO1 (stereo not shown) [Entry 186, tetrahydrofuran-2-ylmethyl {5-[1-hydroxy-3-oxo-2-(phenylmethyl)-2,3-dihydro-1H-isoindol-1-yl]-1H-benzimidazol-2-yl}carbamate] |
| < 100 | < 100 | O=C(Nc1nc2cc(C3(O)c4ccccc4C(=O)N3Cc3ccccc3)ccc2[nH]1)OCC1CC1 (stereo not shown) [Entry 187, cyclopropylmethyl {5-[1-hydroxy-3-oxo-2-(phenylmethyl)-2,3-dihydro-1H-isoindol-1-yl]-1H-benzimidazol-2-yl}carbamate] |
| 1000 to 10000 | 100 to 1000 | O=C(Nc1nc2cc(C3(O)c4ccccc4C(=O)N3Cc3ccccc3)ccc2[nH]1)N1CCOCC1 (stereo not shown) [Entry 188, N-{5-[1-hydroxy-3-oxo-2-(phenylmethyl)-2,3-dihydro-1H-isoindol-1-yl]-1H-benzimidazol-2-yl}morpholine-4-carboxamide] |
| < 100 | < 100 | COC(=O)Nc1nc2cc(C3(O)c4ccccc4C(=O)N3CC3CCCC3)ccc2[nH]1 (stereo not shown) [Entry 189, methyl {5-[2-(cyclopentylmethyl)-1-hydroxy-3-oxo-2,3-dihydro-1H-isoindol-1-yl]-1H-benzimidazol-2-yl}carbamate] |
| < 100 | < 100 | COC(=O)Nc1nc2cc(C3(O)c4ccccc4C(=O)N3c3cccc(C)c3C)ccc2[nH]1 (stereo not shown) [Entry 190, methyl {5-[2-(2,3-dimethylphenyl)-1-hydroxy-3-oxo-2,3-dihydro-1H-isoindol-1-yl]-1H-benzimidazol-2-yl}carbamate] |
| < 100 | < 100 | COC(=O)Nc1nc2cc(C3(O)c4ccccc4C(=O)N3C3CCc4ccccc43)ccc2[nH]1 (stereo not shown) [Entry 191, methyl {5-[2-(2,3-dihydro-1H-inden-1-yl)-1-hydroxy-3-oxo-2,3-dihydro-1H-isoindol-1-yl]-1H-benzimidazol-2-yl}carbamate] |
| 1000 to 10000 | 1000 to 10000 | COC(=O)Nc1nc2cc(C3(O)c4ccccc4C(=O)N3[C@H](C(=O)OC)C3CCCCC3)ccc2[nH]1 (stereo partly drawn) [Entry 192, methyl (2S)-cyclohexyl[1-hydroxy-1-(2-{[(methyloxy)carbonyl]amino}-1H-benzimidazol-5-yl)-3-oxo-1,3-dihydro-2H-isoindol-2-yl]ethanoate] |
| < 100 | < 100 | COC(=O)Nc1nc2cc(C3(O)c4ccccc4C(=O)N3c3c(F)cccc3F)ccc2[nH]1 (stereo not shown) [Entry 193, methyl {5-[2-(2,6-difluorophenyl)-1-hydroxy-3-oxo-2,3-dihydro-1H-isoindol-1-yl]-1H-benzimidazol-2-yl}carbamate] |
| < 100 | < 100 | COC(=O)Nc1nc2cc(C3(O)c4ccccc4C(=O)N3c3ccc(F)c(Cl)c3)ccc2[nH]1 (stereo not shown) [Entry 194, methyl {5-[2-(3-chloro-4-fluorophenyl)-1-hydroxy-3-oxo-2,3-dihydro-1H-isoindol-1-yl]-1H-benzimidazol-2-yl}carbamate] |
| < 100 | < 100 | C=CCCOC(=O)Nc1nc2cc(C3(O)c4ccccc4C(=O)N3Cc3ccccc3)ccc2[nH]1 (stereo not shown) [Entry 195, but-3-en-1-yl {5-[1-hydroxy-3-oxo-2-(phenylmethyl)-2,3-dihydro-1H-isoindol-1-yl]-1H-benzimidazol-2-yl}carbamate] |
| < 100 | < 100 | O=C(Nc1nc2cc(C3(O)c4ccccc4C(=O)N3Cc3ccccc3)ccc2[nH]1)OCC(F)(F)F (stereo not shown) [Entry 196, 2,2,2-trifluoroethyl {5-[1-hydroxy-3-oxo-2-(phenylmethyl)-2,3-dihydro-1H-isoindol-1-yl]-1H-benzimidazol-2-yl}carbamate] |
| < 100 | < 100 | COC(=O)Nc1nc2cc(C3(O)c4ccccc4C(=O)N3c3cc(Cl)ccc3F)ccc2[nH]1 (stereo not shown) [Entry 197, methyl {5-[2-(5-chloro-2-fluorophenyl)-1-hydroxy-3-oxo-2,3-dihydro-1H-isoindol-1-yl]-1H-benzimidazol-2-yl}carbamate] |
| 1000 to 10000 | 1000 to 10000 | COC(=O)Nc1nc2cc(C3(O)c4ccccc4C(=O)N3C(C)c3cc(Cl)ccc3C)ccc2[nH]1 (stereo not shown) [Entry 198, methyl (5-{2-[1-(5-chloro-2-methylphenyl)ethyl]-1-hydroxy-3-oxo-2,3-dihydro-1H-isoindol-1-yl}-1H-benzimidazol-2-yl)carbamate] |
| 1000 to 10000 | 1000 to 10000 | CC[C@@H](c1ccccc1)N1C(=O)c2ccccc2C1(O)c1ccc2[nH]c(NC(=O)OC)nc2c1 (stereo partly drawn) [Entry 199, methyl (5-{1-hydroxy-3-oxo-2-[(1S)-1-phenylpropyl]-2,3-dihydro-1H-isoindol-1-yl}-1H-benzimidazol-2-yl)carbamate] |
